Measured values as given in ChEMBL document CHEMBL1154171 (J Med Chem, 2009).
The source made the active and inactive calls. The calls are words filed in the database; no cut-off is given here.

What was measured:
[1] = cells; conditions: Mus musculus, Sal
[2] = target: Cyclin-dependent kinase 2/cyclin E (Homo sapiens, UniProt P24941); assay: Inhibition of CDK2/Cyclin E after 60 mins by fluorescence electrophoresis; type: protein-complex assay
[3] = Antitumor activity against mouse Sal cells xenografted in po dosed BALB/c mouse assessed as minimum effective dose required for complete tumor growth inhibition administered BID 8 hrs apart measured within 5 days; type: functional; conditions: read-out: MED
[4] = tested on: Mus musculus; assay: Toxicity in BALB/c mouse xenografted with mouse Sal cells assessed as change in body weight at 25 mg/kg, po BID administered 8 hrs apart measured within 5 days relative to control; type: organism-based; design: dose 25 mg/kg, route oral; conditions: in vivo
[5] = Antitumor activity against mouse Sal cells xenografted in BALB/c mouse assessed as tumor growth inhibition at 6 to 25 mg/kg, po BID administered 8 hrs apart measured within 5 days; type: functional; conditions: dose mg/kg 6-25
[6] = target: Aurora kinase B (Homo sapiens) (UniProt Q96GD4); assay: Inhibition of Aurora B
[7] = Total clearance in iv dosed mouse; type: ADME, organism-based; conditions: in vivo
[8] = tested on: Mus musculus; assay: Inhibition of Akt phosphorylation in po dosed BALB/c mouse xenografted with mouse Sal cells at 3.125 to 12.5 mg/kg, po BID for 4 days measured 2 hrs after final dose on day 5 by Western blot analysis; type: functional, organism-based
[9] = Antitumor activity against mouse Sal cells xenografted in BALB/c mouse assessed as tumor growth inhibition at 3.125 mg/kg, po BID for 4 days measured 2 hrs after final dose on day 5; type: functional; conditions: read-out: TGI
[10] = target: RAC-alpha serine/threonine-protein kinase (Mus musculus, UniProt P31750); assay: Inhibition of Akt phosphorylation in mouse Sal cells by Western blotting; type: cell-based
[11] = target: High affinity nerve growth factor receptor (Homo sapiens) (UniProt P04629); assay: Inhibition of TrkA
[12] = target: Cytochrome P450 1A2 (Homo sapiens, UniProt P05177); assay: Inhibition of CYP1A2; type: ADME
Sequence of Cytochrome P450 1A2 (P05177 whole entry): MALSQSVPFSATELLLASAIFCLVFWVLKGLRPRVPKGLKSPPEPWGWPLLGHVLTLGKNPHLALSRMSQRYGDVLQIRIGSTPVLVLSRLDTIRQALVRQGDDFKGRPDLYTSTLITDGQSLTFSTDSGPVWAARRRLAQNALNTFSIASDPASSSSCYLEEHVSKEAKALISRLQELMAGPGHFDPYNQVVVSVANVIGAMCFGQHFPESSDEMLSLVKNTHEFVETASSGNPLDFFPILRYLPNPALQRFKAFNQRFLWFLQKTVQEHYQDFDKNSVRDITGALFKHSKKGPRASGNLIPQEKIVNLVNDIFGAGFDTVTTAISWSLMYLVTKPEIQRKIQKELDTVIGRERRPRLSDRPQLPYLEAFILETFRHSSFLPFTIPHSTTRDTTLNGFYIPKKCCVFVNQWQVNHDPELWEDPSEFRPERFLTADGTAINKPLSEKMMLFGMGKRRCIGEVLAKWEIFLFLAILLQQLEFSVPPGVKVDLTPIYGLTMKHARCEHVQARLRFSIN

[13] = Antitumor activity against mouse Sal cells xenografted in BALB/c mouse assessed as tumor growth inhibition at 6.25 mg/kg, po BID for 4 days measured 2 hrs after final dose on day 5; type: functional; conditions: read-out: TGI
[14] = Total clearance in iv dosed rat; type: ADME, organism-based; conditions: in vivo
[15] = Bioavailability in iv dosed mouse; type: ADME, organism-based; conditions: in vivo
[16] = Antitumor activity against mouse Sal cells xenografted in BALB/c mouse assessed as tumor growth inhibition at 12.5 mg/kg, po BID for 4 days measured 2 hrs after final dose on day 5; type: functional; conditions: read-out: TGI
[17] = In vivo antitumor activity against human Rh41 cells assessed as tumor growth inhibition at 12.5 mg/kg BID for 14 consecutive days measured on day 60 post tumor implantation; type: functional; conditions: Rh41, 1440 h, read-out: TGI
[18] = Bioavailability in iv dosed dog; type: ADME, organism-based, Canis lupus familiaris; conditions: in vivo
[19] = Total clearance in iv dosed monkey; type: ADME, organism-based, Macaca mulatta; conditions: rhesus monkey, in vivo
[20] = Bioavailability in iv dosed monkey; type: ADME, organism-based, Macaca mulatta; conditions: rhesus monkey, in vivo
[21] = Plasma protein binding in mouse; type: ADME, cell-free; conditions: read-out: PPB (converted)
[22] = Bioavailability in iv dosed rat; type: ADME, organism-based; conditions: in vivo
[23] = Total clearance in iv dosed dog; type: ADME, organism-based, Canis lupus familiaris; conditions: in vivo
[24] = tested on: Mus musculus; assay: Toxicity in BALB/c mouse xenografted with mouse Sal cells assessed as body weight loss at 25 mg/kg, po BID administered 8 hrs apart for 4 consecutive days measured within 5 days; type: organism-based; design: dose 25 mg/kg, route oral; conditions: in vivo
[25] = target: Cytochrome P450 2C9 (Homo sapiens, UniProt P11712); assay: Inhibition of CYP2C9; type: ADME
Sequence of Cytochrome P450 2C9 (P11712 whole entry): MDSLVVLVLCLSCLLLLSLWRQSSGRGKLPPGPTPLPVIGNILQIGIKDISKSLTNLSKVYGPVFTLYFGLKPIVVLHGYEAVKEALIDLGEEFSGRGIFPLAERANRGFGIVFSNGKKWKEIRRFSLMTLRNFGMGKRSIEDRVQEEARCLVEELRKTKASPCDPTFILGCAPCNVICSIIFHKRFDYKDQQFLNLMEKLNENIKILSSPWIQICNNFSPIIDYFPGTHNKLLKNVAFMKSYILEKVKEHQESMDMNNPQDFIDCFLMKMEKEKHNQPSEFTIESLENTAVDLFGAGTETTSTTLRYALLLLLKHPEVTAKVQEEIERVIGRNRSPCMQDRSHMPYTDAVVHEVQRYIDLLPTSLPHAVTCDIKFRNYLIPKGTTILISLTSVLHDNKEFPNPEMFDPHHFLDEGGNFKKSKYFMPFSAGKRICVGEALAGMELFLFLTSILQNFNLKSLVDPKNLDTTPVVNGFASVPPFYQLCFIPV

[26] = tested on: Mus musculus; assay: Inhibition of IGF1R phosphorylation in po dosed BALB/c mouse xenografted with mouse Sal cells at 3.125 to 12.5 mg/kg, po BID for 4 days measured 2 hrs after final dose on day 5 by Western blot analysis; type: functional, organism-based
[27] = target: Macrophage-stimulating protein receptor (Homo sapiens) (UniProt Q04912); assay: Inhibition of Ron
Sequence of Macrophage-stimulating protein receptor (Homo sapiens) (Q04912 25-304 limits assumed): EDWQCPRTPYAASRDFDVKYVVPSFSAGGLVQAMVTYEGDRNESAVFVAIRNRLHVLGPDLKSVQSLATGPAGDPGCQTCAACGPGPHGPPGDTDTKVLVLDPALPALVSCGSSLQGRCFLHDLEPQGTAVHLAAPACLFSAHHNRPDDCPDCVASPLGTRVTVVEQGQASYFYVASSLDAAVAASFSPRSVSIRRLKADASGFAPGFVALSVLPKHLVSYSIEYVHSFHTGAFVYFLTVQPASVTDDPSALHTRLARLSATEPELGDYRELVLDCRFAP
Sequence of Macrophage-stimulating protein receptor (Homo sapiens) (Q04912 310-1400 limits assumed): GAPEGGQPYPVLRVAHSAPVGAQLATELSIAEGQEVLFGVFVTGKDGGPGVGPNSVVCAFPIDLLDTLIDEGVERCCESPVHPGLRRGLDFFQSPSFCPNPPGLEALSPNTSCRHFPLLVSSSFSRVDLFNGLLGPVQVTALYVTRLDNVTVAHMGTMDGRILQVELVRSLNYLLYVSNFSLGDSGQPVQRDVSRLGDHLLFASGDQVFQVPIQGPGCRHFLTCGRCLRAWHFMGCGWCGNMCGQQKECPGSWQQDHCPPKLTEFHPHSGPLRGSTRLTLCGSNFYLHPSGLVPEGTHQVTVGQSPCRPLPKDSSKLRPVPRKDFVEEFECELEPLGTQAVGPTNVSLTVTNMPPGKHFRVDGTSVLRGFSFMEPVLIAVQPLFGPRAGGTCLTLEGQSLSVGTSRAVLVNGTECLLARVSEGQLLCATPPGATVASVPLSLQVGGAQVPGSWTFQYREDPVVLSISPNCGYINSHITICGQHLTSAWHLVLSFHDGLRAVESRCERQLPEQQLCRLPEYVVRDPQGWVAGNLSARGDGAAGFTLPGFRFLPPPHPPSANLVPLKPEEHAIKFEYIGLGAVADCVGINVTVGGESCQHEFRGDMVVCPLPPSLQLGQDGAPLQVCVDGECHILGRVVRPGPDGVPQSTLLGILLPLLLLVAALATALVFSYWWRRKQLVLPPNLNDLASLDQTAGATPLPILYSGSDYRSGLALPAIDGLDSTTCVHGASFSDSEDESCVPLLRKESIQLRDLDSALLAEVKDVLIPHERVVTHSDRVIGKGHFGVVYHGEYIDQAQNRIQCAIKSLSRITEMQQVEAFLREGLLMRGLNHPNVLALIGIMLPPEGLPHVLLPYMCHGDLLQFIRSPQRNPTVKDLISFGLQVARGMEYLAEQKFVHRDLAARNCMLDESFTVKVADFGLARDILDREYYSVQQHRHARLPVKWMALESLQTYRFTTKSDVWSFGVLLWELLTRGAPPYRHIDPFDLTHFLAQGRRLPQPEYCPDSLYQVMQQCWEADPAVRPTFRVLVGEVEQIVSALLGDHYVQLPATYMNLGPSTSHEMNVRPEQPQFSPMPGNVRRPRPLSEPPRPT

[28] = target: Cytochrome P450 2D6 (Homo sapiens, UniProt P10635); assay: Inhibition of CYP2D6; type: ADME
Sequence of Cytochrome P450 2D6 (P10635 whole entry): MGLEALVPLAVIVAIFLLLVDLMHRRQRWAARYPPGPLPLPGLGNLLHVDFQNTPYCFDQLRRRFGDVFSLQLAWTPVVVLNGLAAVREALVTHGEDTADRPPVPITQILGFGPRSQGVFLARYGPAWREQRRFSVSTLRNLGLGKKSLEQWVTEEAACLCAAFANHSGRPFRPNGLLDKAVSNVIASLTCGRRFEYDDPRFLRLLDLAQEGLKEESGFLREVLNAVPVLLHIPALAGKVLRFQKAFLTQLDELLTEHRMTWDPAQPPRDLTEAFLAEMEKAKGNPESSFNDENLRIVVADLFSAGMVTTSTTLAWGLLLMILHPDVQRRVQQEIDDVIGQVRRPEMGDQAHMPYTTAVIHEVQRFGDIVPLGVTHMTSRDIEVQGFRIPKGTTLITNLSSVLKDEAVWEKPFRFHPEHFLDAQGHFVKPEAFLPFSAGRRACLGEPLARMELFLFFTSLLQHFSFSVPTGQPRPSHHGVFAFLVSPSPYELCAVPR

[29] = target: Insulin receptor (Mus musculus) (UniProt P15208); assay: Inhibition of insulin receptor phosphorylation in mouse Sal cells at 0.003 to 1 uM by Western blotting; type: cell-based
Sequence of Insulin receptor (Mus musculus) (P15208 28-748 limits assumed): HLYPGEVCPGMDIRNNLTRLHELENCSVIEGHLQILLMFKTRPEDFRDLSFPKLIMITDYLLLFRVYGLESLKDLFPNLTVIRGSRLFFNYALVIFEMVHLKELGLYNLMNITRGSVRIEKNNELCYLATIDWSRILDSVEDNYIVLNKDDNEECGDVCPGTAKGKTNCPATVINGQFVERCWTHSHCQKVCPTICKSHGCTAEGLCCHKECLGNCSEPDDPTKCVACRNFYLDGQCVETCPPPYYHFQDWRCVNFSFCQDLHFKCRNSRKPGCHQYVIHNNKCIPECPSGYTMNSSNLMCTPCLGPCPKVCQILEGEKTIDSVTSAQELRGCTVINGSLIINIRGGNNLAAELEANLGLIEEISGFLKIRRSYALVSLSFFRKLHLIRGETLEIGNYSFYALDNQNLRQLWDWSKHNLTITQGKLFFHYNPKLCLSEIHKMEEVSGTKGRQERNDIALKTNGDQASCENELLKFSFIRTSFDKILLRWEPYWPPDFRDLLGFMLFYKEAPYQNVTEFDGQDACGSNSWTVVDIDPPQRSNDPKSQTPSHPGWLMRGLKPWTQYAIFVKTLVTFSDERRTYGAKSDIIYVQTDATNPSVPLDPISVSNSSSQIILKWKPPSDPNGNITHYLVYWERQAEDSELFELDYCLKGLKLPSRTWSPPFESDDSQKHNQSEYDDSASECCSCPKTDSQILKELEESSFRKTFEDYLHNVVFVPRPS
Sequence of Insulin receptor (Mus musculus) (P15208 753-1372 limits assumed): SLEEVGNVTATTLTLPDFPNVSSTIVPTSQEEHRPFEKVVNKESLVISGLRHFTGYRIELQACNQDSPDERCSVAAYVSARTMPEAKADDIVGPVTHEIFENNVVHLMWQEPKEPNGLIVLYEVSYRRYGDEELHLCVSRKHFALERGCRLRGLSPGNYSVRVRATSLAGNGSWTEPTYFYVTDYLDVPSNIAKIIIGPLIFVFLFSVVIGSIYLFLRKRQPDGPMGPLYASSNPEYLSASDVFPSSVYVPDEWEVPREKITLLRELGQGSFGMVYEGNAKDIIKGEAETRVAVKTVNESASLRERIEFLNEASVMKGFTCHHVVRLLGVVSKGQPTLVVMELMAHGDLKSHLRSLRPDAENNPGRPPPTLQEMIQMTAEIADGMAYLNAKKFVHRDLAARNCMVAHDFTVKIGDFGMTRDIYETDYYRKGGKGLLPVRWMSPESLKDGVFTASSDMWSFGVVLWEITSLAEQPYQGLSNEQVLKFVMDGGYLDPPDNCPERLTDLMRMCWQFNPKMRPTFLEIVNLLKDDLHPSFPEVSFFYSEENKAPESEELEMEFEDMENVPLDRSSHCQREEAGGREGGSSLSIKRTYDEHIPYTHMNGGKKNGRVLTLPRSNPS

[30] = target: BDNF/NT-3 growth factors receptor (Homo sapiens) (UniProt Q16620); assay: Inhibition of TrkB
Sequence of BDNF/NT-3 growth factors receptor (Homo sapiens) (Q16620 32-822 limits assumed): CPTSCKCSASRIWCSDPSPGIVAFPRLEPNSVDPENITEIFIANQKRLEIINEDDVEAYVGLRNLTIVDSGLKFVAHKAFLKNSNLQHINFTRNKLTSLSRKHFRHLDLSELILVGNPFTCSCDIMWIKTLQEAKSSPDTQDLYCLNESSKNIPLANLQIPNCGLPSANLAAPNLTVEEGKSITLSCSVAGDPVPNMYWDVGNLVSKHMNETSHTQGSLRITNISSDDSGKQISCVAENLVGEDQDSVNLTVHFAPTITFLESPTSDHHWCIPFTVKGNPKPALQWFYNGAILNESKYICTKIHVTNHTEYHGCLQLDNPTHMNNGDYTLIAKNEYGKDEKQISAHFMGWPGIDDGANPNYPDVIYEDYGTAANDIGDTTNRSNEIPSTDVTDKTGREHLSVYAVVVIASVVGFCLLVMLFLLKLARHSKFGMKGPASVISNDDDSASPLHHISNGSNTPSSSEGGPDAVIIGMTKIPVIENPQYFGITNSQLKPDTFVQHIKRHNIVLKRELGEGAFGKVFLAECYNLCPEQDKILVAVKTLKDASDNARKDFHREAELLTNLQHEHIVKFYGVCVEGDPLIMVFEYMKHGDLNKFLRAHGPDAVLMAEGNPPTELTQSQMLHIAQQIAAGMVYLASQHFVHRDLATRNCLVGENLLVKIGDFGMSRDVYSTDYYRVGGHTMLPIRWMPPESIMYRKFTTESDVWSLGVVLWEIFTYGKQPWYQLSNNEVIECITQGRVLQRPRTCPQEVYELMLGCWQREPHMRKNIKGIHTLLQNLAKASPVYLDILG

[31] = target: Cytochrome P450 2C19 (Homo sapiens, UniProt P33261); assay: Inhibition of CYP2C19; type: ADME
[32] = Permeability across human Caco-2 cells; type: ADME, cell-based; conditions: read-out: permeability
[33] = Permeability by PAMPA; type: ADME; conditions: read-out: permeability
[34] = target: Insulin-like growth factor 1 receptor (Homo sapiens, UniProt P08069); assay: Inhibition of IGF1R after 60 mins by fluorescence electrophoresis

For Cc1ccc(NC(=O)[C@@H]2CCCN2c2nc(Nc3cc(C4CC4)[nH]n3)c3cccn3n2)cc1, the IC50 [1] was 426 nM and the IC50 [2] was 1420 nM.
In the case of C[C@@]1(C(=O)Nc2cnccn2)CCCN1c1nc(Nc2cc(C3CC3)[nH]n2)c2cccn2n1, the minimal effective dose [3] is reported as 6.25 mg/kg, the Activity [4] is reported as -3.6 g and the TGI [5] is reported as 113%.
With C[C@@]1(C(=O)Nc2ccc(F)nc2)CCCN1c1nc(Nc2cc(C3CC3)n[nH]2)c2cccn2n1 [BMS-754807] the inhibition [6] was “Active”, the clearance [7] was 113 mL/min/kg and the inhibition [8] was “Active”. The inhibition in vivo at 3.125 mg/kg [9] was 80%, the IC50 [10] was 22 nM and the inhibition [11] was “Active”. It also gave an IC50 [12] of over 40000 nM, a minimal effective dose [3] of 6.25 mg/kg and an inhibition in vivo at 6.25 mg/kg [13] of 107%. It also gave a clearance [14] of 20 mL/min/kg, a bioavailability [15] of 6% and an inhibition in vivo at 12.5 mg/kg [16] of 110%. For the same compound, the inhibition in vivo at 12.5 mg/kg [17] was 115%, the bioavailability [18] was 59% and the clearance [19] was 41 mL/min/kg. The bioavailability [20] was 8%, the fraction unbound [21] was 0.015 and the Activity [4] was 0.2 g. The bioavailability [22] was 30%, the clearance [23] was 3.5 mL/min/kg and the TGI [5] was 102%. For the same compound, the Activity [24] was over 10%, the IC50 [25] was 23000 nM and the inhibition [26] was “Active”. The inhibition [27] was “Active”, the IC50 [28] was over 40000 nM and the Activity [29] was “Active”. For the same compound, the inhibition [30] was “Active”, the IC50 [31] was 11000 nM and the Papp [32] was 14.1 ×10⁻⁶ cm/s. The Papp [33] was 38.7 ×10⁻⁶ cm/s.
NC(=O)[C@H]1CCCN1c1nc(Nc2cc(C3CC3)[nH]n2)c2cccn2n1 gave an IC50 [1] of 310 nM and an IC50 [2] of 24 nM.
Compound CN(C(=O)[C@@H]1CCCN1c1nc(Nc2cc(C3CC3)[nH]n2)c2cccn2n1)c1ccccc1 has an IC50 [2] of 200 nM.
For O=C(Nc1cccnc1)[C@@H]1CCCN1c1nc(Nc2cc(C3CC3)[nH]n2)c2cccn2n1, the IC50 [1] was 39 nM and the IC50 [2] was 577 nM.
C[C@@]1(C(=O)Nc2nccs2)CCCN1c1nc(Nc2cc(C3CC3)n[nH]2)c2cccn2n1 gave a minimal effective dose [3] of 12.5 mg/kg, an Activity [4] of 0.3 g and a TGI [5] of 74%.
For O=C(Nc1nccs1)[C@@H]1CCCN1c1nc(Nc2cc(C3CC3)[nH]n2)c2cccn2n1, the IC50 [1] was 69 nM and the IC50 [2] was 40 nM.
Work on C[C@@]1(C(=O)Nc2cccnc2)CCCN1c1nc(Nc2cc(C3CC3)[nH]n2)c2cccn2n1 yielded a minimal effective dose [3] of 25 mg/kg, an IC50 [1] of 24 nM and an IC50 [2] of 1430 nM. For the same compound, the Activity [4] was 1.9 g, the TGI [5] was 76% and the IC50 [34] was 6 nM.
O=C(Nc1ccccc1)[C@@H]1CCCN1c1nc(Nc2cc(C3CC3)[nH]n2)c2cccn2n1 gave an IC50 [1] of 133 nM and an IC50 [2] of 322 nM.
For NC(=O)[C@@H]1CCCN1c1nc(Nc2cc(C3CC3)[nH]n2)c2cccn2n1, the IC50 [1] was 47 nM and the IC50 [2] was 2 nM.
